Measured values: ChEMBL document CHEMBL1201862, “PubChem BioAssay data set” (2004)
Active and inactive are the calls of the source.

Tests used:
[1] = biological target: T1, Microphthalmia-associated transcription factor (Homo sapiens, UniProt O75030); test: reducers of TRPM1 reporter luminescence, concentration series – cell-based, SK-MEL-5, cherry-picked, set 4, MITF inhibitor project, dose response (AID 493102); format: functional
T1 sequence (O75030 whole entry): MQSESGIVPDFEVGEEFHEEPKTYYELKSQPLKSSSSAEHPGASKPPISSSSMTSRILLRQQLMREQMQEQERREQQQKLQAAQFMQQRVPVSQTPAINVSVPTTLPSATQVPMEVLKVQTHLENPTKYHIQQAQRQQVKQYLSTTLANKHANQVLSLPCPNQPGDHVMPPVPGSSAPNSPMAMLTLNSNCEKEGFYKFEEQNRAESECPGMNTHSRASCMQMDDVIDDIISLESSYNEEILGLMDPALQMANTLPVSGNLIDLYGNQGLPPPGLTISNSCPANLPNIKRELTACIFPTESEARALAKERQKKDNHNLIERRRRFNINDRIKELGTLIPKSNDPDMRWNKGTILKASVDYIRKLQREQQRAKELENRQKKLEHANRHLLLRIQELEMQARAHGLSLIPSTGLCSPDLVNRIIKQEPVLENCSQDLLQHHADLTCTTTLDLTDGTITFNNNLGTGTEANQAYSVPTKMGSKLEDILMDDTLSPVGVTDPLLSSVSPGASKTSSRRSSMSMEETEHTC

[2] = biological target: T1, Microphthalmia-associated transcription factor; test: reducers of TRPM1 reporter luminescence, concentration series – cell-based, SK-MEL-5, cherry-picked, set 3, MITF inhibitor project, dose response (AID 493073); format: functional;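 further: SK-MEL-5 melanoma cells with luciferase driven by the MITF target TRPM1 promoter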
[3] = biological target: T1, Microphthalmia-associated transcription factor; test: MITF Measured in Cell-Based System Using Plate Reader - 2084-01_Inhibitor_DoseNoFile_CherryPick_Activity_Set2. [Related pubchem assays (depositor defined):AID488944]; format: functional
[4] = biological target: C-C chemokine receptor type 6 (Homo sapiens, UniProt P51684); test: antagonism of CCR6 beta-arrestin recruitment – cell-based, luminescent beta-arrestin readout, dose response (AID 504728); format: functional
[5] = biological target: T2, Hexokinase HKDC1 (Homo sapiens, UniProt Q2TB90); test: inhibition of HKDC1 glucose phosphorylation – biochemical, W721R variant, dose response (AID 504729); format: functional
T2 sequence (Q2TB90 whole entry): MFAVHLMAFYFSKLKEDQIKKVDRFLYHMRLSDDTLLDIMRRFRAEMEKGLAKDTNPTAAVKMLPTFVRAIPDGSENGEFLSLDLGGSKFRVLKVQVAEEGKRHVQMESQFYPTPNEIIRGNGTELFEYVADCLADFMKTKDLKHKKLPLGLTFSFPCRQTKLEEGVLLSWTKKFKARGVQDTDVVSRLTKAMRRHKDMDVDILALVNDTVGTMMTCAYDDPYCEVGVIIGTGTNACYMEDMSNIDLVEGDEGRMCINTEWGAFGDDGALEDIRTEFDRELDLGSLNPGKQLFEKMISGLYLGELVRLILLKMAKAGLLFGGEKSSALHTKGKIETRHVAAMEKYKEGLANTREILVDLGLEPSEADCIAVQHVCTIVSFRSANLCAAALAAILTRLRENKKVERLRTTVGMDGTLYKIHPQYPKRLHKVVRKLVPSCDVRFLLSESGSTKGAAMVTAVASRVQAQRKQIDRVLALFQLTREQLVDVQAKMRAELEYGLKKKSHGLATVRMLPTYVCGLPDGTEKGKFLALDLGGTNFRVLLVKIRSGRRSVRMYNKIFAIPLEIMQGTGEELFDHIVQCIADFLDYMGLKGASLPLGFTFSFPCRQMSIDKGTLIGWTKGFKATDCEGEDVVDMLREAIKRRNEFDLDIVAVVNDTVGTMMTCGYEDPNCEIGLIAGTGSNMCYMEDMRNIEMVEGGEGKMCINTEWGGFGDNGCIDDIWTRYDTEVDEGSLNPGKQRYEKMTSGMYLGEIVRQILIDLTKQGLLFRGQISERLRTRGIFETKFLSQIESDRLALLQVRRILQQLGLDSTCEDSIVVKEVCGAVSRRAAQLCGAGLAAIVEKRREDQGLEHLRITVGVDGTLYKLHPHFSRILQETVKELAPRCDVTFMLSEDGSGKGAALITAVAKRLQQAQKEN

[6] = viability loss in THP-1 monocytes – THP-1 cells, cytotoxicity control for Vif-APOBEC3G degradation inhibitor project, dose response (AID 1117359); format: functional; details: THP-1
[7] = HGIII-sPLA2 enzyme inhibition potency – biochemical, QFRET, IC50, dose response (AID 743457);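 further: green fluorescence rise as the enzyme cleaves BODIPY PC-A2 in liposomes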
[8] = THP-1 cell cytotoxicity, dose response, cytotoxicity control for non-replicating M. tuberculosis project (AID 489025); format: functional
[9] = biological target: Eukaryotic translation initiation factor 4E (Mus musculus, UniProt P63073); test: blockers of eIF4G binding by eIF4E – biochemical, TR-FRET, dose response (AID 855); format: functional;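 further: potency for disrupting eIF4E binding to eIF4GI seen as loss of FRET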
[10] = biological target: T3, Polyadenylate-binding protein 1 (Homo sapiens, UniProt P11940); test: MLLE domain peptide-binding blockers, IC50 – biochemical, fluorescence polarization, FITC-PAM2 peptide, dose response (AID 602259); format: functional; details: read-out: IC50_Mean
[11] = biological target: Beta-galactosidase (Escherichia coli, UniProt Q8VNN2); test: detection-enzyme interference by beta-gal modulators – biochemical, E. coli enzyme, set 3, artefact control for CCR6 antagonist project, dose response (AID 504712); format: functional
[12] = biological target: Glucose-6-phosphate 1-dehydrogenase (Homo sapiens, UniProt P11413); test: inhibition of Homo sapiens G6PD, dose series – biochemical, fluorescence, selectivity assay for P. falciparum G6PD inhibitor project, dose response (AID 504792); format: functional
[13] = biological target: T3, Polyadenylate-binding protein 1; test: MLLE binding blockers, Cy5 peptide tracer – biochemical, fluorescence polarization, Cy5-PAM2 peptide, secondary, miRNA deadenylation inhibitor project, dose response (AID 602260); format: functional; details: read-out: IC50_Mean
[14] = biological target: Induced myeloid leukemia cell differentiation protein Mcl-1 (Homo sapiens, UniProt Q07820); format: functional
[15] = biological target: T4, Tyrosine-protein phosphatase non-receptor type 7 (Homo sapiens, UniProt P35236); test: redox-active compounds inhibiting HePTP phosphatase – biochemical, fluorescence, mechanism study (AID 2068); format: functional
T4 sequence (P35236 whole entry): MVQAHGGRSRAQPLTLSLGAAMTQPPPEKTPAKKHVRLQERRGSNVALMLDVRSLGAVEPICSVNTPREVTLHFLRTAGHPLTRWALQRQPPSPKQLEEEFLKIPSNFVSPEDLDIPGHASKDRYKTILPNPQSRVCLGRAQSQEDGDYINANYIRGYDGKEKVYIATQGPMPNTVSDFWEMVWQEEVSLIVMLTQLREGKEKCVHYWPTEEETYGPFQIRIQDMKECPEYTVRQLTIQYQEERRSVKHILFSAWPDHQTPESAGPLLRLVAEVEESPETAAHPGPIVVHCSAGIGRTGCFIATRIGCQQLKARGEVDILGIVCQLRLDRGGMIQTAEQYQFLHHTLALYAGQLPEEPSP

[16] = biological target: Beta Lactamase (Pseudomonas aeruginosa, UniProt Q932Y6); test: BLA reporter interference, concentration series – BLA reporter cells, FRET fluorescence, artefact control for TLR9-MyD88 binding inhibitor project, dose response (AID 588341); format: cell-based;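 further: cell based assay in CHO-K1 cells stably expressing beta-lactamase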
[17] = system: CHO; test: CHO cell viability loss, potency – luminescence, cytotoxicity control for TLR9-MyD88 binding inhibitor project, dose response (AID 588339); format: functional, cell-based, hamster; details: Cricetulus griseus;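 further: CHO cells stably coexpressing TLR9 and MyD88 fusions from primary screen; compound exposure lasted 48 hours before viability readout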
[18] = biological target: Hexokinase (Trypanosoma brucei, UniProt Q38C41); test: Confirmation assay for inhibitors of Trypanosoma brucei hexokinase 1-Analogue-first series. [Related pubchem assays (depositor defined):AID1430, AID1632, AID2516, AID2560, AID2579, AID2600, AID449725, AID492951]; format: functional
Chain of Hexokinase (Q38C41 whole entry): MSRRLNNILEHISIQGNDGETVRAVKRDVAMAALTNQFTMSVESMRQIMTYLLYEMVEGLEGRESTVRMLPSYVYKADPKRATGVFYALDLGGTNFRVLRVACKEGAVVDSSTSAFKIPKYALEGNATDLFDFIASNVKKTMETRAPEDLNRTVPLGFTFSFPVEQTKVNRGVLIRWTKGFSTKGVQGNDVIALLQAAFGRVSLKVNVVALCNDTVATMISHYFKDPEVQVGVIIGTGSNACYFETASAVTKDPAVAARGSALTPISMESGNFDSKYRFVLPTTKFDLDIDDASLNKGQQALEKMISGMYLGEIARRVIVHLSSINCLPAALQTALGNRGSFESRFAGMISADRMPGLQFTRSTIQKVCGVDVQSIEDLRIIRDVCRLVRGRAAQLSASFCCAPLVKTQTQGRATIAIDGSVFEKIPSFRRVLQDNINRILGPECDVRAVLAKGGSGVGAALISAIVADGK

Chain of Glucose-6-phosphate 1-dehydrogenase (P11413 whole entry): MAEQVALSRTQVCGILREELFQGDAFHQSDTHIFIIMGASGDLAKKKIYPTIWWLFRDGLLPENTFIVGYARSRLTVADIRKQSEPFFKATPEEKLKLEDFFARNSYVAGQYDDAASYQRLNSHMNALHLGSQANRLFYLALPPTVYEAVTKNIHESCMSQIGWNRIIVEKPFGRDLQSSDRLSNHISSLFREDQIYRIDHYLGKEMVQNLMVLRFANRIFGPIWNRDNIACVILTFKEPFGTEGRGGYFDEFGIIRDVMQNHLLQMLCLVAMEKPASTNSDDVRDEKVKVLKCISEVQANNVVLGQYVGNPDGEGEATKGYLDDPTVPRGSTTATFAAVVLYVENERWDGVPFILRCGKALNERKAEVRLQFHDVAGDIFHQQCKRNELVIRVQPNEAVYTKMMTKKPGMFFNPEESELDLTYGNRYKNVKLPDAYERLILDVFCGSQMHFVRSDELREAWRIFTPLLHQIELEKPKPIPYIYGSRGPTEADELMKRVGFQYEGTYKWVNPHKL
T3 sequence (P11940 whole entry, the tested form may be a part): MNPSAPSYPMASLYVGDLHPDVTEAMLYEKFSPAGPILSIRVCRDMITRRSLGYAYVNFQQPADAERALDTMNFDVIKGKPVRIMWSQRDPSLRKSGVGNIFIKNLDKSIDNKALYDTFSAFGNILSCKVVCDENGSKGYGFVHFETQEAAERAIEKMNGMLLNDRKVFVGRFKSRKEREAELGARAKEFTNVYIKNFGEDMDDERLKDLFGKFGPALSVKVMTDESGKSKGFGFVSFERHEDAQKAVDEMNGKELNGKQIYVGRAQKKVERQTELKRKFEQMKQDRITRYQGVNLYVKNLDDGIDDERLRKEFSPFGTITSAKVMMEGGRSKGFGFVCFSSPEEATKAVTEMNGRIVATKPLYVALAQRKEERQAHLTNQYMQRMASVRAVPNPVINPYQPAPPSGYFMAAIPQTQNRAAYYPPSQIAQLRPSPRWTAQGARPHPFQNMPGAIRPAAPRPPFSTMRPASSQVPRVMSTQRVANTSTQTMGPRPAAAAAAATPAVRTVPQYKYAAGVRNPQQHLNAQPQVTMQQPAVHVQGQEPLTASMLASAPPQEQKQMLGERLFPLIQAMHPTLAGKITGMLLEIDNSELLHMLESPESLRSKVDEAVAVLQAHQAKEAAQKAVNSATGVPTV
Chain of Beta-galactosidase (Q8VNN2 whole entry): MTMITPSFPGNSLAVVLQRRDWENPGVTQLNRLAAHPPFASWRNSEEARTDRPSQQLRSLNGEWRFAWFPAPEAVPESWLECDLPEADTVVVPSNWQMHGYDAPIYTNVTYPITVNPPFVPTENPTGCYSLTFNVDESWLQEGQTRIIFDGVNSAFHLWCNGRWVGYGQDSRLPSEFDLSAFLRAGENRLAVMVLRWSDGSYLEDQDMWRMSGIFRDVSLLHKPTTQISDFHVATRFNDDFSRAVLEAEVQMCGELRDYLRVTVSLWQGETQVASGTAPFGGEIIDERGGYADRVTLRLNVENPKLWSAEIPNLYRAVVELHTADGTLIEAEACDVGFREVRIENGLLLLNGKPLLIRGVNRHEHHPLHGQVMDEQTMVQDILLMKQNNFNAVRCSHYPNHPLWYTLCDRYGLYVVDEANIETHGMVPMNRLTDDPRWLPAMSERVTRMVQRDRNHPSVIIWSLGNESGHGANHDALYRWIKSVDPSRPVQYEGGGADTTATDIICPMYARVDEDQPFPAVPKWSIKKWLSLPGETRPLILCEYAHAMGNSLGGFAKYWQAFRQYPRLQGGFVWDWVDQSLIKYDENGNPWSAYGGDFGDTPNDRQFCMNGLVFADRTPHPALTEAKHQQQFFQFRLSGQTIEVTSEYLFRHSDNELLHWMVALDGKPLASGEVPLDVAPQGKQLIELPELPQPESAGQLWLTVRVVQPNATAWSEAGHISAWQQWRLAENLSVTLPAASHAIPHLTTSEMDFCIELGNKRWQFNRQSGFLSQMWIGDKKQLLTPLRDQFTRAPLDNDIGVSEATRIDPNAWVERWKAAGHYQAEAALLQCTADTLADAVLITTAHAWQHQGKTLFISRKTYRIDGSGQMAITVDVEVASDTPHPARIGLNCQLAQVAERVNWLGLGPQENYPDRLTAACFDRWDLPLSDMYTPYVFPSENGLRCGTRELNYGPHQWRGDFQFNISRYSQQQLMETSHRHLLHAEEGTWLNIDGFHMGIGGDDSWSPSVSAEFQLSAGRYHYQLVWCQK
Chain of C-C chemokine receptor type 6 (P51684 whole entry): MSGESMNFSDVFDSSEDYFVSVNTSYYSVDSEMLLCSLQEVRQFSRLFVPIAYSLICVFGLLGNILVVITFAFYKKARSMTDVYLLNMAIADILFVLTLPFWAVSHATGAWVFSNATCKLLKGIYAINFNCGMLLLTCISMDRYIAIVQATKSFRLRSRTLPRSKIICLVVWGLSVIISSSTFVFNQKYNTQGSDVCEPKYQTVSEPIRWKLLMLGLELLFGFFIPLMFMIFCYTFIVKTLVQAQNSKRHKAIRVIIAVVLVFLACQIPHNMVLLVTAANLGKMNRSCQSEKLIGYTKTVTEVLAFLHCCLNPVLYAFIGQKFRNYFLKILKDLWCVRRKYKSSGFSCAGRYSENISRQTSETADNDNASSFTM
Chain of Eukaryotic translation initiation factor 4E (P63073 whole entry, the tested form may be a part): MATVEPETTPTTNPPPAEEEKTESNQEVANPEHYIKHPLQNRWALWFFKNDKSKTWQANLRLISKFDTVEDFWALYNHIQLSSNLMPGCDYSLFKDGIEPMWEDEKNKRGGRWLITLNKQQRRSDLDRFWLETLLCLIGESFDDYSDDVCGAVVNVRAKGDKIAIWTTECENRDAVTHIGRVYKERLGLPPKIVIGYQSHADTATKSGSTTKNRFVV
Chain of Induced myeloid leukemia cell differentiation protein Mcl-1 (Q07820 whole entry): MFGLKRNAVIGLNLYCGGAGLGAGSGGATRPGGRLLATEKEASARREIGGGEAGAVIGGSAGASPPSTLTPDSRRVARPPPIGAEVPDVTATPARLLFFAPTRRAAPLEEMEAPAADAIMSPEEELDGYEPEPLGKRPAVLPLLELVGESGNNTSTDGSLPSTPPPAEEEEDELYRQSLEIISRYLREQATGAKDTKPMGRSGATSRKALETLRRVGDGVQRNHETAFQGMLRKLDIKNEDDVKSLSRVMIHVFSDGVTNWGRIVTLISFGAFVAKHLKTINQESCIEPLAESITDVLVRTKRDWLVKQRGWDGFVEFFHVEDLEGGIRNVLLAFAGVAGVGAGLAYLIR
Chain of Beta Lactamase (Q932Y6 whole entry, the tested form may be a part): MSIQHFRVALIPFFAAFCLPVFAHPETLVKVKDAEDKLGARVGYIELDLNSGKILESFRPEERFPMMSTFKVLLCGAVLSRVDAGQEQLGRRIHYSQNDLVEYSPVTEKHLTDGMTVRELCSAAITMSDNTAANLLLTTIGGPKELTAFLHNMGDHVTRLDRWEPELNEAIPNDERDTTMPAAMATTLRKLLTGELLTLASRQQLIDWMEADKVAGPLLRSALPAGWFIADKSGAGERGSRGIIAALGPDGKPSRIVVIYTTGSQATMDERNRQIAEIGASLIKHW

With `CN(C)Cc1c(O)ccc2c1O/C(=C\C=C\c1ccccc1)C2=O` the AC50 [1] was > 350 µM (inactive), the AC50 [2] was > 350 µM (inactive) and the AC50 [3] was > 350 µM (inactive).

With `CNCc1ccccc1Sc1cc(O)ccc1O` the IC50 [4] was 23.5 µM (inactive), the IC50 [5] was 3.35 µM (active) and the CC50 [6] was > 40 µM (active). The IC50 [7] was > 122 µM (inactive), the CC50 [8] was 38.8 µM (active) and the IC50 [9] was > 64 µM (inactive). For the same compound, the IC50 [10] was > 66 µM (inactive), the IC50 [11] was > 66.6 µM (inactive) and the IC50 [12] was 26.9 µM (inactive). For the same compound, the IC50 [13] was > 66 µM (inactive) and the IC50 [14] was 4.5 µM (active).

For `CC1CCN(C(=O)Nc2ccc3nc(-c4ccco4)c(-c4ccco4)nc3c2)CC1`, the IC50 [15] was 0.84 µM (active).

In the case of `O=c1c2cc(C(F)(F)F)ccc2sn1-c1ccccc1`, the IC50 [16] is reported as > 49.8 µM (inactive), the IC50 [17] is reported as 9.07 µM (active) and the IC50 [12] is reported as 18.3 µM (active). The IC50 [18] was > 25 µM (inactive).
